In patent US4849424A, “Pyrimidine derivatives” (Nissin Shokuhin Kabushiki Kaisha, priority 1986, dated 1989):

Key:
[1] = Oral acute toxicity (LD50) in rats; details: rat, in vivo, 0.3% CMC-Na suspension, 72 hours observation, 10 rats per group, Probit method
Protocol: A 0.3% CMC-Na suspension of a test compound was orally administered to groups of Slc:Wistar/KY rats (male: 90-120 g), each group consisting of 10 rats. […] LD50 values were calculated by the Probit method to be as follows: […]

[2] = tested on: ulcer; experiment: Restraint-immersion stress ulcer in rats (anti-stress ulcer activity); assay type: in vivo, Male Sprague-Dawley rats; details: 32 mg/kg p.o. in 0.1% MC, 5 minutes before restraint-immersion for 7 hours at 22° C.
Protocol: Male Sprague-Dawley rats (body weight: 230-280 g) were placed under restraint in a stress cage after fasting for 15 hours, and immersed vertically in the water bath kept at 22° C. to the level of the xiphoid of the animal. After restraint-immersion for 7 hours the animals were killed, and the stomach from each animal was fixed with formalin.
Each stomach was opened by cutting along the greater curvature, and ulcer area (mm^2) was measured with a stereoscopic microscope. Ulcer indices of the treated group and the control group were compared, and inhibitory rates were calculated. The tested compound, either 4,6-bis(1-pyrazolyl) pyrimidine (32 mg/kg) suspended in 0.1% methylcellulose (MC) or 0.1% methylcellulose (MC) alone, was orally administered 5 minutes before the restraint-immersion.

[3] = tested on: gastric lesions; experiment: HCl-ethanol-induced gastric lesions in rats (cytoprotective effect); assay type: in vivo, Male Sprague-Dawley rats; details: Rattus norvegicus, po; for ED50: 30 minutes before HCl-ethanol; for inhibition in vivo at 10 mg/kg: 10 mg/kg p.o. in 1% CMC, 30 minutes before 150 mM HCl-60% ethanol, 3 rats per group, lesions measured 1 hour later, read-out: Inhibition (inhibitory rate of ulcer length vs control)
Protocol: Male Sprague-Dawley rats (body weight: 220-240 g, 7 weeks) were deprived of food but allowed free access to water for 24 hours prior to the experiments. Each control and experimental group consisted of 3 rats. One hundred and fifty mM HCl-60% ethanol (v/v) was given p.o. in a volume of 1 ml/rat. The animals were sacrificed 1 hour later, and the stomach was removed and inflated by injecting 10 ml of 2% formalin to fix the inner and outer layers of the gastric walls. Subsequently, the stomach was incised along the greater curvature and washed gently with ice-cold saline.
Gastric lesions were identified in the grandular portion. The length of lesions was measured in millimeters (mm) under a dissecting microscope with a square grid (×10), and lesion severity was expressed as the total length of lesions per stomach.
Test compound (I) (10 mg/kg), suspended in 1% carboxymethyl cellulose (CMC), or 1% carboxymethyl cellulose for the control was orally administered 30 minutes before HCl-ethanol administration. The ulcer length of the treated group and the control group were compared and the inhibitory rates were calculated.

| Compound | LD50 at 72 h [1] [mg/kg] | Inhibition (inhibitory rate of ulcer index vs control) [2] [%] | ED50 [3] [mg/kg] | inhibition in vivo at 10 mg/kg [3] [%] |
| --- | --- | --- | --- | --- |
| c1cnn(-c2cc(-n3cccn3)ncn2)c1 [Example 1, 4,6-Bis(1-pyrazolyl)pyrimidine] | > 3000 | 73.6 | 0.72 | 95.6 |
| c1cn(-c2ccnc(-n3ccnc3)n2)cn1 [Example 4, 2,4-Bis(1-imidazolyl)pyrimidine] | – | – | – | 78.2 |
| COc1cc(C)nc(-n2cccn2)n1 [Example 6, 4-Methoxy-6-methyl-2-(1-pyrazolyl)pyrimidine] | – | – | – | 87.2 |
| COc1cc(C)nc(-n2ccnc2)n1 [Example 7, 2-(1-Imidazolyl)-4-methoxy-6-methylpyrimidine] | – | – | – | 82.6 |
| COc1nc(C)cc(-n2cncn2)n1 [Example 9, 2-Methoxy-6-methyl-4-(1,2,4-triazol-1-yl)pyrimidine] | – | – | – | 75.7 |
| CCOc1cc(C)nc(-n2ccnc2)n1 [Example 10, 4-Ethoxy-2-(1-imidazolyl)-6-methylpyrimidine] | – | – | – | 80.7 |
| CCOc1cc(C)nc(-n2cccn2)n1 [Example 11, 4-Ethoxy-6-methyl-2-(1-pyrazolyl)pyrimidine] | – | – | – | 78.3 |
| COc1cc(-n2cccn2)ncn1 [Example 15, 6-Methoxy-4-(1-pyrazolyl)pyrimidine] | – | – | – | 95.6 |
| COc1cc(-n2ccnc2)ncn1 [Example 16, 4-(1-Imidazolyl)-6-methoxypyrimidine] | 400 | – | 5.6 | 91.3 |
| CC(C)Oc1cc(-n2cccn2)ncn1 [Example 17, 6-Isopropoxy-4-(1-pyrazolyl)pyrimidine] | – | – | – | 79.8 |
| c1cnn(-c2cc(N3CCCCC3)ncn2)c1 [Example 19, 6-Piperidino-4-(1-pyrazolyl)pyrimidine] | – | – | – | 79.2 |
